Data from paper PMC12424613, “Analysis of the resistance level and target site resistance mechanisms of Echinochloa crus-galli to penoxsulam from Hubei Province, China” (PeerJ, 2025).
pIC50: −log10 of the molar value.

Molecular target: T1, acetolactate synthase (ALS)
T1 construct: native ALS from leaf extract of susceptible population 18-NJ (ammonium sulfate precipitated, desalted; ALS1/ALS2/ALS3 copies not separated)
Assay: in vitro ALS activity assay (acetoin formation, […] nm) in desalted leaf enzyme extract
Type: biochemical, Echinochloa crus-galli

Question: With `COc1cnc(OC)n2nc(NS(=O)(=O)c3c(OCC(F)F)cccc3C(F)(F)F)nc12` [penoxsulam] as the compound, how does the pIC50 read?
Answer: 5.91
